Assay results as given in patent US4517191A, “1-Amino-1,8-naphthyridine compounds useful as bactericides” (Sterling Drug Inc., priority 1983, dated 1985).
Converted amounts (≈) assume the structure as drawn.

How the values were obtained:
[1] = system: Bacteria; experiment: in vitro antibacterial activity, serial dilution, stated for the bacteria as a whole; assay type: cell-based; conditions: at the highest concentrations tested (62.5-500 mcg/ml)
Description: (§1) The in vitro antibacterial activity of the compounds of the invention was determined by conventional serial dilution procedures. Bacterial cultures were grown in tryptose phosphate broth or brain heart infusion broth (containing heat-inactivated normal horse serum for tests with S. pyogenes) overnight at 37° C. and subsequently diluted in double strength broth to provide bacterial inocula of about 2×10^5 cells/ml. Aqueous solutions of the compounds of Formula I where R" is hydrogen were prepared by dissolving the free acid form in 0.5N sodium hydroxide. The solutions were diluted with sterile distilled water to 1000 mcg/ml of compound in terms of the free acid. Serial two-fold dilutions of the compound stock solutions were prepared in water and 0.5 ml of each dilution was transferred to sets of tubes, one set for each bacterial inoculum. Each tube was then inoculated with 0.5 ml of the appropriate culture, resulting in a final bacterial concentration of about 1×10^5 cells/ml. The minimal inhibitory concentration (MIC), defined as the lowest concentration of the test compound to inhibit visible bacterial growth, was recorded after 18-20 hours of static incubation at 37° C. The results are recorded in Table I:
These are intermediates for the compounds of Examples 5 and 7.

[2] = system: Klebsiella pneumoniae 39645; experiment: in vivo antibacterial activity in infected female mice (K. pneumoniae); conditions: Klebsiella pneumoniae, 39645, sc, 336 h, K. pneumoniae i.m. infection, s.c. 17 h and 1 h preinfection, 6 h postinfection, twice a day for next three days, deaths recorded for fourteen days, read-out: Protective Dose (PD50)
Description: (§2) The in vivo antibacterial activity of the compounds of the invention was determined in female mice, 18-20 grams each, by the following procedure:
(§3) Aqueous solutions of the compounds of Formula I where R" is hydrogen were prepared by dissolving the free acid form in dilute sodium hydroxide and diluting the solution with distilled water to the desired volume.
(§4) Cultures of Escherichia coli Vogel prepared in brain heart infusion broth, and cultures of Klebsiella pneumoniae 39645 grown in tryptose phosphate broth with 5% rabbit serum diluted in the same broth were used to infect the mice as follows:
K. pneumoniae: mice were inoculated intramuscularly in the right hind leg with 0.2 ml of the bacterial test inoculum (2.05×10^4 cells/ml).
Mice infected with K. pneumoniae were medicated at the following times: seventeen hours and one hour preinfection, six hours postinfection and twice a day for the next three days. The test compound was administered the subcutaneous (0.2 ml) route. Deaths were recorded daily for fourteen days.
(§5) Groups of ten animals each for four or five dose levels were thus treated and the number of survivors in each group recorded. The fifty percent protective dose values (PD50) were then calculated.

[3] = system: Staphylococcus aureus Smith; experiment: in vitro antibacterial activity, serial dilution (MIC); assay type: cell-based; conditions: 18-20 hours at 37° C., about 1×10^5 cells/ml, read-out: Minimal Inhibitory Concentration
Description: as §1, with “C.” for “C. The results are recorded in Table I:”

[4] = system: Proteus mirabilis MGH-1; experiment: as above; assay type: cell-based; conditions: MGH1, 18-20 hours at 37° C., about 1×10^5 cells/ml, read-out: Minimal Inhibitory Concentration
Description: as §1, with “C.” for “C. The results are recorded in Table I:”

[5] = system: Pseudomonas aeruginosa MGH-2; experiment: as above; assay type: cell-based; conditions: MGH2, 18-20 hours at 37° C., about 1×10^5 cells/ml, read-out: Minimal Inhibitory Concentration
Description: as §1, with “C.” for “C. The results are recorded in Table I:”

[6] = system: Klebsiella pneumoniae 39645; experiment: as above; assay type: cell-based; conditions: 18-20 hours at 37° C., about 1×10^5 cells/ml, read-out: Minimal Inhibitory Concentration
Description: as §1, with “C.” for “C. The results are recorded in Table I:”

[7] = system: Escherichia coli Vogel; experiment: as above; assay type: cell-based; conditions: 18-20 hours at 37° C., about 1×10^5 cells/ml, read-out: Minimal Inhibitory Concentration
Description: as §1, with “C.” for “C. The results are recorded in Table I:”

[8] = system: Streptococcus pyogenes C203; experiment: as above; assay type: cell-based; conditions: broth containing heat-inactivated normal horse serum, 18-20 hours at 37° C., about 1×10^5 cells/ml, read-out: Minimal Inhibitory Concentration
Description: as §1, with “C.” for “C. The results are recorded in Table I:”

[9] = system: Proteus vulgaris 9920; experiment: as above; assay type: cell-based; conditions: 18-20 hours at 37° C., about 1×10^5 cells/ml, read-out: Minimal Inhibitory Concentration
Description: as §1, with “C.” for “C. The results are recorded in Table I:”

[10] = system: Escherichia coli Vogel; experiment: in vivo antibacterial activity in infected female mice (E. coli); conditions: sc, 168 h, E. coli i.p. infection, medicated once s.c. one-half hour post infection, deaths recorded for seven days, read-out: Protective Dose (PD50)
Description: as §2, §3, §4
E coli: mice were inoculated intraperitoneally with 0.5 ml of the bacerial test inoculum (1.87×10^7 and 5×10^6 cells/ml respectively).
Mice infected with E. coli were medicated once (0.5 ml) one-half hour post infection, the test compound being administered by the subcutaneous (s.c.) route. Deaths were recorded daily for seven days.
as §5

Q: Which “in vitro antibacterial activity” value [1] does the source give for Cc1ccc2c(=O)c(C(=O)O)cn(N)c2n1 [Example 2, 1-Amino-1,4-dihydro-7-methyl-4-oxo-1,8-naphthyridine-3-carboxylic acid] here?
A: The value was “inactive”.

Q: CNn1cc(C(=O)O)c(=O)c2ccc(C)nc21 [Example 5, 1,4-Dihydro-7-methyl-1-methylamino-4-oxo-1,8-naphthyridine-3-carboxylic acid] was tested. Which ED50 [2] did it give?
A: Its ED50 is over 200 mg/kg.

Q: And the MIC [3]?
A: Its MIC is over 500 µg/mL.

Q: And the MIC [4]?
A: Its MIC is 62.5 µg/mL (≈ 268 µM).

Q: And the MIC [5]?
A: Its MIC is over 500 µg/mL.

Q: And the MIC [6]?
A: The MIC was 62.5 µg/mL (≈ 268 µM).

Q: What about the MIC [7] of the same compound?
A: The MIC was 31.3 µg/mL (≈ 134 µM).

Q: What about the MIC [8] of the same compound?
A: The MIC was over 500 µg/mL.

Q: And the MIC [9]?
A: Its MIC is 62.5 µg/mL (≈ 268 µM).

Q: What about the ED50 [10] of the same compound?
A: Its ED50 is 141 mg/kg.

Q: How did the “in vitro antibacterial activity” value [1] turn out when CCOC(=O)c1cn(N)c2nc(C)ccc2c1=O [Example 1, Ethyl 1-amino-1,4-dihydro-7-methyl-4-oxo-1,8-naphthyridine-3-carboxylate] was run?
A: Its value is “inactive”.

Q: For CCNn1cc(C(=O)O)c(=O)c2ccc(C)nc21 [Example 7, 1-Ethylamino-1,4-dihydro-7-methyl-4-oxo-1,8-naphthyridine-3-carboxylic acid], which ED50 [2] is on record?
A: The ED50 was over 200 mg/kg.

Q: And the MIC [3]?
A: The MIC was over 500 µg/mL.

Q: What about the MIC [4] of the same compound?
A: Its MIC is 250 µg/mL (≈ 1010 µM).

Q: And the MIC [5]?
A: Its MIC is over 500 µg/mL.

Q: And the MIC [6]?
A: The MIC was 125 µg/mL (≈ 506 µM).

Q: And the MIC [7]?
A: The MIC was 31.3 µg/mL (≈ 127 µM).

Q: And the MIC [8]?
A: The MIC was over 500 µg/mL.

Q: And the MIC [9]?
A: Its MIC is 15.6 µg/mL (≈ 63.1 µM).

Q: What about the ED50 [10] of the same compound?
A: The ED50 was 93 mg/kg.

Q: For CCOC(=O)c1cn(N(C)C=O)c2nc(C)ccc2c1=O [Example 4, Ethyl 1-(N-formylmethylamino)-1,4-dihydro-7-methyl-4-oxo-1,8-naphthyridine-3-carboxylate], which “in vitro antibacterial activity” value [1] is on record?
A: Its value is “inactive”.

Q: Which ED50 [2] does the source give for CCOC(=O)c1cn(N(C=O)CC)c2nc(C)ccc2c1=O [Example 6, Ethyl 1-(N-formylethylamino)-1,4-dihydro-7-methyl-4-oxo-1,8-naphthyridine-3-carboxylate] here?
A: Its ED50 is over 200 mg/kg.

Q: What about the “in vitro antibacterial activity” value [1] of the same compound?
A: Its value is “inactive”.

Q: And the ED50 [10]?
A: The ED50 was 53.5 mg/kg.
